The test system of the assay is HSSY-II tumor spheroid viability. Briefly: Anticancer human tumor HSSY-II cell line growth inhibition.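 For all read-outs here: spheroids exposed to compounds for seven days before reading.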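 For viability, T/C: percent of DMSO vehicle control viability so 100% = untreated level.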 Particulars: spheroids with HUVEC and MSC; for viability, T/C: stronger effect = lower value. In outline: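 Complex tumor spheroids combined malignant cells with endothelial cells and mesenchymal stem cells. DNA-damaging drugs and DNA repair inhibitors were tested alone and in combination, at half-log dilutions down from clinical Cmax (top 10 microM if Cmax unknown), 0.25% DMSO final.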

“And” between values parts separate entries of the source, which are not always exact repeats. Identical values can stand only once.

As a reminder, the IC50 is the midpoint of a concentration-inhibition curve. A word on the viability, T/C: it is the result in the treated group divided by that in the control group, in per cent.

`Cn1ncnc1[C@H]1c2n[nH]c(=O)c3cc(F)cc(c23)N[C@@H]1c1ccc(F)cc1` + Cn1nnc2c(C(N)=O)ncn2c1=O: the IC50 by setting is: (curve of first compound, second compound 1 µM) 88.1 nM; (curve of first compound, second compound 3.16 µM) 41.7 nM; (curve of first compound, second compound 10 µM) 21.1 nM; (curve of first compound, second compound 31.6 µM) < 9.49 nM; (curve of first compound, second compound 100 µM) < 9.49 nM. In addition, the viability, T/C is, setting by setting: (second compound 1 µM, first compound 0.00949 µM) 86.8%; (second compound 1 µM, first compound 0.03 µM) 68.6%; (second compound 1 µM, first compound 0.0949 µM) 52.6%; (second compound 1 µM, first compound 0.3 µM) 20.8%; (second compound 1 µM, first compound 0.949 µM) 10.8%; (second compound 1 µM, first compound 3 µM) 6.39%. The viability, T/C is, setting by setting: (second compound 3.16 µM, first compound 0.00949 µM) 83%; (second compound 3.16 µM, first compound 0.03 µM) 50.1%; (second compound 3.16 µM, first compound 0.0949 µM) 45.6%; (second compound 3.16 µM, first compound 0.3 µM) 15.5%; (second compound 3.16 µM, first compound 0.949 µM) 9.89%; (second compound 3.16 µM, first compound 3 µM) 8.35%. The viability, T/C was 70.3% (second compound 10 µM, first compound 0.00949 µM); 41.2% (second compound 10 µM, first compound 0.03 µM); 15.4% (second compound 10 µM, first compound 0.0949 µM); 10.5% (second compound 10 µM, first compound 0.3 µM); 8.29% (second compound 10 µM, first compound 0.949 µM); 6.47% (second compound 10 µM, first compound 3 µM). In addition, the viability, T/C is 20.1% (second compound 31.6 µM, first compound 0.00949 µM); 10.9% (second compound 31.6 µM, first compound 0.03 µM); 9.75% (second compound 31.6 µM, first compound 0.0949 µM); 8.55% (second compound 31.6 µM, first compound 0.3 µM); 7.6% (second compound 31.6 µM, first compound 0.949 µM); 4.67% (second compound 31.6 µM, first compound 3 µM). Further, the viability, T/C was 8.89% (second compound 100 µM, first compound 0.00949 µM); 7.52% (second compound 100 µM, first compound 0.03 µM); 8.61% (second compound 100 µM, first compound 0.0949 µM); 7.59% (second compound 100 µM, first compound 0.3 µM); 6.58% (second compound 100 µM, first compound 0.949 µM); 5.25% (second compound 100 µM, first compound 3 µM).
In the case of `Cc1sc2c(c1C)C(c1ccc(Cl)cc1)=NC(CC(=O)Nc1ccc(O)cc1)c1nnc(C)n1-2` (stereo not drawn) + CC[C@@]1(O)C(=O)OCc2c1cc1n(c2=O)Cc2cc3c(CN(C)C)c(O)ccc3nc2-1, the IC50 is 90.9 nM (curve of first compound, second compound 0.003 µM); < 9.49 nM (curve of first compound, second compound 0.00949 µM); < 9.49 nM (curve of first compound, second compound 0.03 µM); < 9.49 nM (curve of first compound, second compound 0.0949 µM); < 9.49 nM (curve of first compound, second compound 0.3 µM). In addition, the viability, T/C (second compound 0.003 µM, first compound 0.00949 µM) was 78.6%; the viability, T/C (second compound 0.003 µM, first compound 0.03 µM) was 70.5%; the viability, T/C (second compound 0.003 µM, first compound 0.0949 µM) is 49.2%; the viability, T/C (second compound 0.003 µM, first compound 0.3 µM) was 23.5%; the viability, T/C (second compound 0.003 µM, first compound 0.949 µM) is 9.78%; the viability, T/C (second compound 0.003 µM, first compound 3 µM) is 7.01%. Moreover, the viability, T/C is 37.7% (second compound 0.00949 µM, first compound 0.00949 µM); 35.2% (second compound 0.00949 µM, first compound 0.03 µM); 21.8% (second compound 0.00949 µM, first compound 0.0949 µM); 15.4% (second compound 0.00949 µM, first compound 0.3 µM); 8.01% (second compound 0.00949 µM, first compound 0.949 µM); 4.79% (second compound 0.00949 µM, first compound 3 µM). The viability, T/C (second compound 0.03 µM, first compound 0.00949 µM) is 7.22%; the viability, T/C (second compound 0.03 µM, first compound 0.03 µM) was 6.32%; the viability, T/C (second compound 0.03 µM, first compound 0.0949 µM) is 6.41%; the viability, T/C (second compound 0.03 µM, first compound 0.3 µM) is 5.13%; the viability, T/C (second compound 0.03 µM, first compound 0.949 µM) is 2.41%; the viability, T/C (second compound 0.03 µM, first compound 3 µM) is 2.5%. The viability, T/C was 5.51% (second compound 0.0949 µM, first compound 0.00949 µM); 5.61% (second compound 0.0949 µM, first compound 0.03 µM); 5.13% (second compound 0.0949 µM, first compound 0.0949 µM); 4.3% (second compound 0.0949 µM, first compound 0.3 µM); 2.91% (second compound 0.0949 µM, first compound 0.949 µM); 2.35% (second compound 0.0949 µM, first compound 3 µM). For the same molecule, the viability, T/C was 4.66% (second compound 0.3 µM, first compound 0.00949 µM); 4.16% (second compound 0.3 µM, first compound 0.03 µM); 4.31% (second compound 0.3 µM, first compound 0.0949 µM); 3.08% (second compound 0.3 µM, first compound 0.3 µM); 1.91% (second compound 0.3 µM, first compound 0.949 µM); 0.64% (second compound 0.3 µM, first compound 3 µM).
Consider `Cn1nnc2c(C(N)=O)ncn2c1=O`, for which the viability, T/C by setting is: (compound 1 µM) 100% [middle of 10 runs]; (compound 3.16 µM) 104% [middle of 10 runs]; (compound 10 µM) 102% [middle of 10 runs]; (compound 31.6 µM) 103% [middle of 10 runs]; (compound 100 µM) 93.4% [middle of 10 runs]. In addition, the IC50 (compound alone, run of 12/02/2019) was > 100000 nM.
With `COc1ccc([C@@H](O)c2cc(-c3ncnc4cc(N5CCOCC5)ccc34)c(F)cc2Cl)nn1`, the viability, T/C is 99% (2×) and 100% (compound 0.0316 µM); 108% and 97.5% and 98% (compound 0.1 µM); 98.5% and 89.3% and 86.9% (compound 0.316 µM); 67.9% and 60.5% and 66.9% (compound 1 µM); 40.8% and 40.2% and 43.4% (compound 3.16 µM); 15.2% and 20.4% and 21.2% (compound 10 µM). Also, the IC50 (curve of compound) was 2100 nM and 1830 nM and 2260 nM.

The values are drawn from PubChem BioAssay AID1845204 (Molecular Pharmacology Branch, DTP, NCI, 2023).
